Read-outs that look alike come from different tables or passages of the source.
Experiments:
FGFR2 V564I = FGFR2 V564I (Homo sapiens (Human), UniProt P21802, V564I); assay: HTRF kinase activity assay, FGFR2 V564I; type: biochemical
Procedure: (§1) Activity Experiment 8: Inhibition of FGFR Family Kinases' Activity by Prepared Compounds The compounds were assayed for activity IC50 against the FGFR family kinases. Related kinases were purchased from Carna and Signalchem. The activity assay method for the related kinases was established by homogeneous time-resolved fluorescence (HTRF), and the inhibitory activity of the compounds was determined. […] The kinases and compounds were pre-incubated for 10 min, and then ATP and substrate were added to start the reaction. All the enzyme-catalyzed reactions were carried out at 25° C. for 40 min. After the enzyme-catalyzed reactions were completed, 5 μL of TK antibody-cryptate and streptavidin-XL665 (the reaction concentration of streptavidin-XL665 was 62.5 nM) were added to the reaction mixtures, and the mixtures were incubated at 25° C. for another 60 min.

Ba/F3 KIF5B-RET cells = assay: Ba/F3 KIF5B-RET cell inhibition (CellTiter-Glo); type: cell-based; details: Mus musculus, BaF3, 72 h
Procedure: (§2) Activity Experiment 3: Inhibition of Ba/F3 KIF5B-RET Cells by Prepared Compounds Ba/F3 KIF5B-RET, Ba/F3KIF5B-RET-V804M, Ba/F3 RET-M918T and Ba/F3 KIF5B-RET-G810R cells growing in log phase were harvested and counted using a […]. The cell viability was determined by the trypan blue exclusion method, and the cell viability was kept over 90%. The cell concentration was adjusted, and 90 μL of the cell suspension was added to a 96-well plate. The cells in the 96-well plate were incubated overnight at 37° C. with 5% CO2 and 95% humidity. Corresponding gradient concentrations of drug solutions (the maximum concentration was 1000 nM) were added to the 96-well plate inoculated with cells at 10 μL/well. Triplicate wells were set per drug concentration, and the final concentration of DMSO was 0.1%. The drug-treated cells in the 96-well plate were incubated for another 72 h at 37° C. with 5% CO2 and 95% humidity. After the drug treatment was completed, 100 μL of CellTiter-Glo reagent was added to each well. The cell plate was shaken on an orbital shaker for 5 min to lyse the cells and then let stand at room temperature for 20 min to stabilize the luminescence signals, and then the luminescence values were read. The data were analyzed using the GraphPad Prism 5.0 software. Dose-response curves were fit to the data using nonlinear S-curve regression, and IC50 was calculated from the curves.

FGFR3 V555M = FGFR3 V555M (Homo sapiens (Human), UniProt P22607, V555M); assay: HTRF kinase activity assay, FGFR3 V555M; type: biochemical
Chain of FGFR3 V555M (P22607 23-806 V555M): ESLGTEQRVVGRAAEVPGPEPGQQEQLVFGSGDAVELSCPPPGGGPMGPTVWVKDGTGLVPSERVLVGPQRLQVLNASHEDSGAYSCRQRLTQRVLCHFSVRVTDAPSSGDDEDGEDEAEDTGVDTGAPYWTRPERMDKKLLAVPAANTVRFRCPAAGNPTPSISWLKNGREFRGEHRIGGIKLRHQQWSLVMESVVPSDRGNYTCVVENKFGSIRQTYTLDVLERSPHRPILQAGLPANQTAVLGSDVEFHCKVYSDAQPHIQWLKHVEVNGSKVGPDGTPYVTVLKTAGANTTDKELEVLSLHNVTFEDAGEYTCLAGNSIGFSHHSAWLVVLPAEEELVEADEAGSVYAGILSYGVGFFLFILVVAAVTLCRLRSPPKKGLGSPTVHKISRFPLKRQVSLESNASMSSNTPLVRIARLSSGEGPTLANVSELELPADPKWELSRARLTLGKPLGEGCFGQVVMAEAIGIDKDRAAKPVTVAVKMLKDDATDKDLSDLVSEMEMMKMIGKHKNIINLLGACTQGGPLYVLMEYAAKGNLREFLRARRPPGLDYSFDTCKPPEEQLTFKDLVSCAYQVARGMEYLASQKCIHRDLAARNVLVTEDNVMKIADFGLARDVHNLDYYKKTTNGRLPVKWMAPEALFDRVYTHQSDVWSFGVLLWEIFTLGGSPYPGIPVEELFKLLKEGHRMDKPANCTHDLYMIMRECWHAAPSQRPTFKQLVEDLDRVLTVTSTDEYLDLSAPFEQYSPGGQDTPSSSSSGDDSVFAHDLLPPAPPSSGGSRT
Procedure: (§3) Activity Experiment 8: Inhibition of FGFR Family Kinases' Activity by Prepared Compounds The compounds were assayed for activity IC50 against the FGFR family kinases. Related kinases were purchased from Carna and Signalchem.
(§4) The activity assay method for the related kinases was established by homogeneous time-resolved fluorescence (HTRF), and the inhibitory activity of the compounds was determined. A 5 μL reaction mixture was prepared, comprising 1× enzymatic buffer (Cisbio, HTRF KinEASE™-TK), 5 mM MgCl2, 1 mM DTT, 1 μM TK substrate-biotin (Cisbio, HTRF KinEASE™-TK), corresponding concentrations of ATP and related kinases, and gradient concentrations of compounds.
(§5) The kinases and compounds were pre-incubated for 10 min, and then ATP and substrate were added to start the reaction. All the enzyme-catalyzed reactions were carried out at 25° C. for 40 min. After the enzyme-catalyzed reactions were completed, 5 μL of TK antibody-cryptate and streptavidin-XL665 (the reaction concentration of streptavidin-XL665 was 62.5 nM) were added to the reaction mixtures, and the mixtures were incubated at 25° C. for another 60 min.

[1] = Tissue distribution assay in mice; type: in vivo, mouse; details: for concentration at 4 h: male, mouse
Procedure: Male NVSG mice (weighing 20-25 g) were orally administered compound 94 and Loxo-292 at a dose of 30 mg/kg. The plasma and tissue samples of the liver, the brain and the lungs and the like of the animals are collected 4 h after administration. Blood plasma collection: The whole blood was collected at about 80-100 μL in EDTA-containing EP tubes and centrifuged at 4000 g for 5 min, and then the upper plasma was collected and stored at −80° C.
Tissue collection: After the animals were euthanized, the tissues were collected and snap-frozen in liquid nitrogen, 5 mL of homogenization solution (50% acetonitrile) was added per gram of tissue. The tissues were processed into homogenates in a tissue homogenizer and stored at −80° C. The concentration of compound in the plasma and tissue samples was quantified by liquid chromatography-tandem mass spectrometry (LC-MS/MS).

FGFR4 = FGFR4 (Homo sapiens (Human), UniProt P22455); assay: HTRF kinase activity assay, FGFR4; type: biochemical
Chain of FGFR4 (P22455 22-802): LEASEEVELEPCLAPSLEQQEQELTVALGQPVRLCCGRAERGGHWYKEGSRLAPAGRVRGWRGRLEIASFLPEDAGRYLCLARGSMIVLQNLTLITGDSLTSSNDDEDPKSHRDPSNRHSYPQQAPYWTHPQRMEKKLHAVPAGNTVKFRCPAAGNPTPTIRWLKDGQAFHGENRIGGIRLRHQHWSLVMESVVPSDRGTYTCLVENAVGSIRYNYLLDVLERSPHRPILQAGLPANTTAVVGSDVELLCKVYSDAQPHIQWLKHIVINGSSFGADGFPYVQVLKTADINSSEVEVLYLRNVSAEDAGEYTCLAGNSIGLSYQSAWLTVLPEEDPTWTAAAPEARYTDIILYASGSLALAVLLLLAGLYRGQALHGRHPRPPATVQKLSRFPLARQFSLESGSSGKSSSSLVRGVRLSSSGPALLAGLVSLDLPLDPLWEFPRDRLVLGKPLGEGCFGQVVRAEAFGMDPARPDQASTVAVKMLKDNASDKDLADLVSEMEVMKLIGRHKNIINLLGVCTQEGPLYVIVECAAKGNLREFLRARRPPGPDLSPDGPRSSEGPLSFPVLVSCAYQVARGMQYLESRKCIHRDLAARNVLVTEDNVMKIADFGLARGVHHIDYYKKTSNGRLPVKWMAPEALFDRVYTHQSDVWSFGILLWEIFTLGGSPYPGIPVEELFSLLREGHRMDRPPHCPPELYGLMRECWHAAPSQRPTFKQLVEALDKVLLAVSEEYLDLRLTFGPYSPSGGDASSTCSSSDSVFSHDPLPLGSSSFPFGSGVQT
Procedure: as §3, §4, §5

FGFR2 V564F = FGFR2 V564F (Homo sapiens (Human), UniProt P21802, V564F); assay: HTRF kinase activity assay, FGFR2 V564F; type: biochemical
Chain of FGFR2 V564F (P21802 22-821 V564F): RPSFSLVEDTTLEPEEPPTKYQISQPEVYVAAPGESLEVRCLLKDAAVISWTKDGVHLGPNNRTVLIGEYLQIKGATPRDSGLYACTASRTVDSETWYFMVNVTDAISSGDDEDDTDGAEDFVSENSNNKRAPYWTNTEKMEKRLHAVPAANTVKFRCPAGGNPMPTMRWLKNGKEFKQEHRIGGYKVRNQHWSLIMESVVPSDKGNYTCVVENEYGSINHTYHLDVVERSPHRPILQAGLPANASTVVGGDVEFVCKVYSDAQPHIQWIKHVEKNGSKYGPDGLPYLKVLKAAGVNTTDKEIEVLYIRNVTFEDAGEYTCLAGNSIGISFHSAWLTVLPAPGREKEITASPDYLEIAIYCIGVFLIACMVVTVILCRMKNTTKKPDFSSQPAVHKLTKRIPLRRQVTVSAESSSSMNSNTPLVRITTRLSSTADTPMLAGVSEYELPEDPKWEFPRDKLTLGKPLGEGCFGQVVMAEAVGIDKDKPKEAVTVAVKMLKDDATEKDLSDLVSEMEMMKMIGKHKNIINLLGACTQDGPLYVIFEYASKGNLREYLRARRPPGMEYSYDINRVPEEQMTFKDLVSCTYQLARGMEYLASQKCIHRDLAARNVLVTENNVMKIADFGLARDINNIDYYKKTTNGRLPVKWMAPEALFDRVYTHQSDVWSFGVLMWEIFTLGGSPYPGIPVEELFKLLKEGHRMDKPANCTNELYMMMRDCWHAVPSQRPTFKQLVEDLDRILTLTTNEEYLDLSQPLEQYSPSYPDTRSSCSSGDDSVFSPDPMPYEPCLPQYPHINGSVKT
Procedure: as §1

FGFR1 V561M = FGFR1 V561M (Homo sapiens (Human), UniProt P11362, V561M); assay: HTRF kinase activity assay, FGFR1 V561M; type: biochemical
Chain of FGFR1 V561M (P11362 22-822 V561M): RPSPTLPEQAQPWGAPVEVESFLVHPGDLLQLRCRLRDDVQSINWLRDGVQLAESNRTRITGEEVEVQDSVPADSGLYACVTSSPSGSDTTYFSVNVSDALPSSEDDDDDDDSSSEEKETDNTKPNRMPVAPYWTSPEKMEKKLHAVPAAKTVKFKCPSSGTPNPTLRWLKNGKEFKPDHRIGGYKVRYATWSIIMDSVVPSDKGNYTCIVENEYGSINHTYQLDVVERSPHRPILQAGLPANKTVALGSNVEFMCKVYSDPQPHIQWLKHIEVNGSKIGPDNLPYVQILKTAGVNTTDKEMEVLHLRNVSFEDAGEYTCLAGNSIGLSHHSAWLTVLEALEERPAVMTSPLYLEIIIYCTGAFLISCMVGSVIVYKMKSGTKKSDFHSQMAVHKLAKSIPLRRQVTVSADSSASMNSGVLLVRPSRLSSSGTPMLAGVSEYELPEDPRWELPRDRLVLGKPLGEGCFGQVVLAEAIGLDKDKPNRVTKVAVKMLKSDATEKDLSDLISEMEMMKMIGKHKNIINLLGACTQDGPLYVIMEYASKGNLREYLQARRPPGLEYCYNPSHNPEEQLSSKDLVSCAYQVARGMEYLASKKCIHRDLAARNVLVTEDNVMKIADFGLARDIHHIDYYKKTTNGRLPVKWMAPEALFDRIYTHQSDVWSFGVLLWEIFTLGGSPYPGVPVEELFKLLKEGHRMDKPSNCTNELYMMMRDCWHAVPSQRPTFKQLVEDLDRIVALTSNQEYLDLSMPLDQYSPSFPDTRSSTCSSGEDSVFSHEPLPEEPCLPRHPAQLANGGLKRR
Procedure: as §3, §4, §5

Ba/F3 RET-M918T cells = assay: Ba/F3 RET-M918T cell inhibition (CellTiter-Glo); type: cell-based; details: Mus musculus, BaF3, 72 h
Procedure: as §2

FGFR1 = FGFR1 (Homo sapiens (Human), UniProt P11362); assay: HTRF kinase activity assay, FGFR1; type: biochemical
Chain of FGFR1 (P11362 22-822): as the sequence (P11362 22-822 V561M) above, with M540V counted along it
Procedure: as §3, §4, §5

[2] = system: Ba/F3 KIF5B-RET-G810R cells; assay: Ba/F3 KIF5B-RET-G810R cell inhibition (CellTiter-Glo); type: cell-based; details: Mus musculus, BaF3, 72 h, maximum concentration 1000 nM
Procedure: as §2

FGFR2 N549H = FGFR2 N549H (Homo sapiens (Human), UniProt P21802, N549H); assay: HTRF kinase activity assay, FGFR2 N549H; type: biochemical
Chain of FGFR2 N549H (P21802 22-821 N549H): as the sequence (P21802 22-821 V564F) above, with N528H, F543V counted along it
Procedure: as §1

[3] = Metabolic stability in human liver microsomes; details: human liver microsomes, NADPH, Table 3; for microsomal CLint at 1 µM: CLint (μL/min/mg); for half-life at 1 µM: T1/2 (min)
[4] = Pharmacokinetic assay in rats; type: in vivo, rat; details: for CL / Vz / F / AUC(0-inf) / AUC(0-t) / Cmax / Tmax / clearance / Vd / half-life: SD male rats; for F: p.o. 5 mg/kg vs i.v. 1 mg/kg; for AUC(0-inf) / AUC(0-t) / Cmax / Tmax / clearance / Vd / half-life: rat, plasma; for Vd: read-out: Vz
[5] = NVSG mice, oral 30 mg/kg, 4 h after administration

Chain of FGFR2 V564I (P21802 22-821 V564I): as the sequence (P21802 22-821 V564F) above, with F543I counted along it

COc1ccc(CN2C3CC2CN(c2ccc(-c4cc(OCC(C)(C)O)cn5ncc(C#N)c45)cn2)C3)cn1 [Selpercatinib, selpercatinib, reference compound]
IC50 (FGFR2 V564I): 0.0976 µM
IC50 (Ba/F3 KIF5B-RET cells): 0.00834 µM
IC50 (FGFR3 V555M): 0.188 µM
concentration at 4 h ([1]; brain, NVSG mice, oral 30 mg/kg, 4 h after administration, read-out: Concentration of compound in brain): 88.3 ng/g
concentration at 4 h ([1]; liver, NVSG mice, oral 30 mg/kg, 4 h after administration, read-out: Concentration of compound in liver): 12900 ng/g
concentration at 4 h ([1]; lung, NVSG mice, oral 30 mg/kg, 4 h after administration, read-out: Concentration of compound in lung): 7190 ng/g
concentration at 4 h ([1]; plasma, NVSG mice, oral 30 mg/kg, 4 h after administration, read-out: Concentration of compound in plasma): 14600 ng/mL
IC50 (FGFR4): 0.475 µM
IC50 (FGFR2 V564F): 0.0129 µM
IC50 (FGFR1 V561M): 1.95 µM
IC50 (Ba/F3 RET-M918T cells): 0.0204 µM
IC50 (FGFR1): 0.304 µM
IC50 [2]: > 1 µM
IC50 (FGFR2 N549H): 0.00926 µM
microsomal CLint at 1 µM [3]: 60.4 µL/min/mg
half-life at 1 µM [3]: 0.382 h
CL ([4]; p.o. 5 mg/kg): 7.6 mL/min/kg
Vz ([4]; p.o. 5 mg/kg): 2.039 L/kg
F [4]: 66.07%
AUC(0-inf) ([4]; iv, i.v. 1 mg/kg): 3330 ng·h/mL
AUC(0-t) ([4]; iv, i.v. 1 mg/kg): 3310 ng·h/mL
Cmax ([4]; iv, i.v. 1 mg/kg): 1260 ng/mL
Tmax ([4]; iv, i.v. 1 mg/kg): 0.083 h
clearance ([4]; iv, i.v. 1 mg/kg): 5.1 mL/min/kg
Vd ([4]; iv, i.v. 1 mg/kg): 1.61 L/kg
AUC(0-inf) ([4]; po, p.o. 5 mg/kg): 11000 ng·h/mL
AUC(0-t) ([4]; po, p.o. 5 mg/kg): 10900 ng·h/mL
Cmax ([4]; po, p.o. 5 mg/kg): 1040 ng/mL
Tmax ([4]; po, p.o. 5 mg/kg): 2.67 h
half-life ([4]; po, p.o. 5 mg/kg): 3.11 h

[2H]C([2H])([2H])N1CCN(c2cc(-c3ccc(N4CC5CC(C4)N5Cc4ccc(OC)nc4)nc3)c3c(C#N)cnn3c2)CC1 [Compound 94]
IC50 (FGFR2 V564I): 0.0456 µM
IC50 (Ba/F3 KIF5B-RET cells): 0.0198 µM
IC50 (FGFR3 V555M): 0.0743 µM
Concentration of compound in brain [1, 5]: 2883.99 ng/g
Concentration of compound in liver [1, 5]: 70199.89 ng/g
Concentration of compound in lung [1, 5]: 87220.49 ng/g
Concentration of compound in plasma [1, 5]: 3174.97 ng/mL
Concentration distribution in tissues of target organs of mice compared with Loxo-292 ([1]; after oral administration): higher concentration distribution
IC50 (FGFR4): 0.595 µM
IC50 (FGFR2 V564F): 0.00358 µM
IC50 (FGFR1 V561M): 1.4 µM
IC50 (Ba/F3 RET-M918T cells): 0.0171 µM
IC50 (FGFR1): 0.301 µM
IC50 [2]: 0.464 µM
IC50 (FGFR2 N549H): 0.00219 µM
microsomal CLint at 1 µM [3]: 41.2 µL/min/mg
half-life at 1 µM [3]: 0.56 h
CL ([4]; p.o. 5 mg/kg): 59.4597 mL/min/kg
Vz ([4]; p.o. 5 mg/kg): 68.49214 L/kg
F [4]: 98.02%
Clearance time in rats compared with Loxo-292 ([4]; after oral administration): took longer to be cleared
Bioavailability compared with Loxo-292 ([4]; after oral administration, rats): higher bioavailability
AUC(0-inf) ([4]; iv, i.v. 1 mg/kg): 335 ng·h/mL
AUC(0-t) ([4]; iv, i.v. 1 mg/kg): 240 ng·h/mL
Cmax ([4]; iv, i.v. 1 mg/kg): 42.3 ng/mL
Tmax ([4]; iv, i.v. 1 mg/kg): 0.08 h
clearance ([4]; iv, i.v. 1 mg/kg): 51.2 mL/min/kg
half-life ([4]; iv, i.v. 1 mg/kg): 13.3 h
Vd ([4]; iv, i.v. 1 mg/kg): 57.6 L/kg
AUC(0-inf) ([4]; po, p.o. 5 mg/kg): 1640 ng·h/mL
AUC(0-t) ([4]; po, p.o. 5 mg/kg): 1020 ng·h/mL
Cmax ([4]; po, p.o. 5 mg/kg): 63.9 ng/mL
Tmax ([4]; po, p.o. 5 mg/kg): 4 h
half-life ([4]; po, p.o. 5 mg/kg): 15.8 h
